The text below walks through data of patent publication US20040142379A1, “Affinity fishing for ligands and proteins receptors” (Carlsberg Research Laboratory, priority 2003, published 2004).

“Also recorded” adds a separate entry of the source. Non-standard residues stand in square brackets, D forms with d. No end group written: not given here. Aze = O=C(O)[C@@H]1CCN1

The first test has as its system Normal Myocytes (basal) protein mixture. The test is described as follows: Solid phase screening of Library 1 with labeled myocyte proteins; on-bead affinity isolation and peptide mass fingerprinting of bound protein (basal). It is filed as binding, neonatal Wistar rats. To be noted: proteins bound to resin-bound Library 1 ligand, primarily present in basal cells; LA low abundance, M transmembrane or partially embedded, MA membrane associated; parentheses = possible complexes. As for the experimental part:
(§1) Myocytes were prepared from 1 to 5 day old neonatal Wistar rats (University of Copenhagen) according to literature procedure described in Busk et al., 2002, Cardiovasc. Res., 56: 64-75 and plated into eight P10 culture plates at 6 million cells/plate. Cells were grown at 37° C. and 5% CO2 humidity in serum free Modified Eagle Media (MEM). After 2 days, the adherent cells were washed at room temperature with serum free MEM (2×) and fresh MEM was added. To four of the plates, 10 μM phenylephrine (PE) was also added. Cells were grown for two more days and then harvested as described below.
(§2) Protein was extracted from myocytes prepared as described above for Example 9, using a new procedure modified from existing protocols, primarily: Arnott, et al., 1998, Anal. Biochem. 258: 1-18. The media was removed from plates and adhered cells were treated for 10 minutes with ice cold phosphate buffer (0.25 mL, 10 mM, pH 7.5, augmented with 0.15 M NaCl 60 mM Benzamidine HCl, 5 mM EDTA, 10 μg/mL E-64, 10 μg/mL Leupeptin, 10 μg/mL Pepstatin A, and 1 mM PMSF). The cells were scraped off the plates and then lysed (on ice) in a sonicator (2×) using 10 seconds off/10 seconds on cycles.
(§3) The resulting suspension was augmented with CHAPS, DTT, and urea to a final concentration of CHAPS (1% w/v), DTT (5 mM), and urea (8 M). After 10-15 minutes on ice, the solution was centrifuged for 10 minutes at 15,000 rpm at 4° C. The supernatant was removed and protein content quantified using the NanoOrange Protein test (Molecular Probes, Eugene, Oreg.): Total protein recovered: 70.5 μg for PE-treated cells and 60 μg for basal cells.
(§4) Fluorescent dye Oregon Green 514 (OR) (Molecular Probes) was used to label the healthy/basal cells while Rhodamine Red (RR) (Molecular Probes) was used to label the PE-treated cells. The labeling procedures were carried out according to the manufacturer's protocol. The protein solutions (0.25 mL, 50.4 μg for PE cells and 0.25 mL, 42.8 μg for basal cells) were dialyzed against a solution of 10 mM phosphate buffer, 0.15 M NaCl, pH 7.5 and then 1 M NaHCO3 (0.025 mL) added to a final pH of 8.5. 10 μL of dye in dry DMF (10 mg/mL) was added and the sample stirred at room temperature for 2 hours. The protein solution was dialyzed extensively against 10 mM phosphate buffer, 0.15 M NaCl, pH 7.5, to remove excess dye.
(§5) Ligand library 1 (200 mg), prepared as described for Example 5, was transferred to a syringe fitted with a stop-valve and the ligand-beads were washed for 10 minutes (3×) with 10 mM phosphate buffer, pH 6.8, supplemented with 0.15 M NaCl, 1 mM Ca^2+, 1 mM Zn^2+, 1 mM Mn^2+, 1 mM Cu^2+, and 1 mM Mg^2+ (3 mL). The ligand-beads were treated with a 1% BSA solution for 30 minutes, then washed with buffer (1×). A mixture of labeled myocyte proteins, including both PE-induced protein (138 μL, 40 μg) and basal protein (167 μL, 40 μg) obtained as described above for Example 11, was prepared in 1.2 mL buffer, and added to the ligand library in the syringe. The proteins and ligand library were incubated at room temperature for 16 hours. The library was then washed with buffer for 5 minutes then with water for 3×5 minutes. The library was examined under a fluorescence microscope and brightly fluorescent red, green, and yellow beads (yellow indicative of both dyes red and green binding; the majority of the beads) were present, as well as unlabelled beads. The fluorescent beads were parted and retained for analysis.
(§6) The fluorescent ligand library beads containing bound myocyte protein obtained as described in Example 15, were sorted using a COPAS (250) NF Bead Sorter (Union Biometrica, Somerville, Mass.). Beads emitting fluorescence of only one color contain proteins from one physical state, proteins expressed only in the PE-induced hypertrophic state (red) or proteins expressed only in the basal state (green).
As for F[Aze]GHG[Aze], the “Identified Protein(s)” value was “Hypothetical proteins; Cysteine and tyrosine rich proteins of unknown; also recorded: function (M); (Mitochondrial ATP synthase; Ribosomal proteins (L; also recorded: series);) Serine protease; SPTR”.
For the molecule Phe-Thr-Pya-Pip-Asp-His, the “Identified Protein(s)” value is listed as “(Sodium channel (M); Chloride channel (M)) Troponin; Ribosomal; also recorded: proteins L26; Serine hydroxy methyl transferase; Zn Finger protein (MA);; also recorded: Adherin aminotransferase (M); (Gluthathione transferase; Gluthathione; also recorded: peroxidase;)”.
Turning to Pya-Hyp-Hyp-Phe-Acm-Tyr, the “Identified Protein(s)” value is listed as “Troponin T; Growth hormone receptor (M); Protein kinase (LA)”.
As to Phe-Ppy-Acc-Ala-Ppy-Hpy, the “Identified Protein(s)” value is listed as “Hypothetical proteins; Troponin T; (Phospholipase C (MA);; also recorded: Phosphatidylcholine sterol acyl transferase)”.
Take Pya-Gua-Pip-Acc-Phe-Pip: the “Identified Protein(s)” value is reported as “NADH dehydrogenase; ATP binding component (M); Myosin; Histone; also recorded: associated proteins (M)”.
Take Pip-Pal-Pal-Phe-Pya-Pip: the “Identified Protein(s)” value is “Myosin light chain kinase (LA, MA); (Tyrosine phosphatase (LA, M);; also recorded: ATP Synthase component (M)) Gluthathione S-transferase; Cytochrome; also recorded: P450 (M); Ribosomal proteins (60s); SPTR (M))”.

The next test concerns the target T1, Phosphomannose isomerase (Candida albicans, UniProt P34948).
T1 sequence (P34948 1-441): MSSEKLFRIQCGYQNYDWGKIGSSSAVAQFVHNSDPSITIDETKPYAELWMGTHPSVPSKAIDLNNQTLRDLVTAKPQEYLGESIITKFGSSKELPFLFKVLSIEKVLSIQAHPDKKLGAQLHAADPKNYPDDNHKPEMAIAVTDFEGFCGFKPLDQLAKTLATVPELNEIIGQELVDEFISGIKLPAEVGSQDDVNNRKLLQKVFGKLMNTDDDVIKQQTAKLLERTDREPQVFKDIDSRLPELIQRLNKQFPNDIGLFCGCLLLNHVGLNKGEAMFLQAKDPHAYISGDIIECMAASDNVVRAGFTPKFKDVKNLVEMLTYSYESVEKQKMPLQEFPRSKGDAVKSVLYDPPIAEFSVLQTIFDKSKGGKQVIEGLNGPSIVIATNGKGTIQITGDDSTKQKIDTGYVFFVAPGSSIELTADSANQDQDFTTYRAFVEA
Assay: not given
To be noted: in Candida; Wells et al, 1996; cited from earlier work.
As for `Nc1ccc(S(=O)(=O)Nc2ncccn2)cc1` [sulfadiazene], the enzyme inhibition result is recorded as “inhibited”.

In another test the test system is Phenylephrine Treated (Hyperthrophic) Myocytes protein mixture. The test is described as follows: Solid phase screening of Library 1 with labeled myocyte proteins; on-bead affinity isolation and peptide mass fingerprinting of bound protein (PE-induced). The settings on record: proteins bound to resin-bound Library 1 ligand, primarily present in PE-treated hypertrophied cells; LA low abundance, M transmembrane or partially embedded, MA membrane associated. It counts as binding, neonatal Wistar rats. How it is done:
as §1, §2, §3, §4, §5, §6
On to Phe-Gua-Pal-Tyr-Gua-Tyr, for which the “Identified Protein(s)” value is recorded as “Glucose-6-Phosphatase; Succinate dehydrogenase; ARL-interacting; also recorded: protein (M); SPTR (M), Nucleic acid binding protein”.
Turning to Abi-Thr-Hyp-Hyp-His-?-, the “Identified Protein(s)” value is “Phosphofructokinase; Selenium binding protein; (Serine arginine rich; also recorded: protein kinase (LA); Guanylate kinase (LA), Protein tyrosine kinase; also recorded: (LA)); Alkaline phosphatase; Symporter (M); SPTR (M); WAP-protein;; also recorded: GTP Hydrolase, Actin filament”.
Turning to Pal-Abi-Gly-Gly-Abi-His, the “Identified Protein(s)” value was “Ribosomal protein (60s + 40s); Low density lipoprotein receptor”.
Same read-out and setting: next, Pya-Gua-Abi-Asp-Abi-Tyr: “SPTR (M); Ribosomal proteins (60s); (Calcium channel (M); Slo channel; also recorded: protein isoform (M); Potassium conductance calcium activated channel; also recorded: (M); Symporter (M;) NADH dehydrogenase; Malate dehydrogenase; N-; also recorded: Acetyl transferase; Mitochondrial associated protein; G-protein receptor; also recorded: used for signaling (LA, M)”; Abi-Phe-Abi-Phe-Che-Tyr: “Cathepsin E; Ribosomal proteins, Actin binding protein, Amino acid; also recorded: transferase”.
Phe-Abi-Pal-Hyp-Thr-Hyp: the “Identified Protein(s)” value is “Zinc finger associated protein; Ribosomal proteins; Protein phosphatase and (LA)”.

In another test the test system is isoleucine tRNA synthetase.
Assay: not given
The settings on record: approved antibiotic; Merck Manual; cited from earlier work.
Consider `C/C(=C\C(=O)OCCCCCCCCC(=O)O)C[C@@H]1OC[C@H](C[C@@H]2O[C@H]2[C@@H](C)[C@H](C)O)[C@@H](O)[C@H]1O` [Mupirocin], for which the enzyme inhibition result is on record as “inhibits”.

Another test concerns Myocytes. As to the kind of experiment: Myocyte culture with phenylephrine (in vitro model of hypertrophy). It counts as cell-based, neonatal Wistar rats. The settings on record: 10 μM phenylephrine, grown two more days, serum free MEM. How it is done:
as §1
Using the procedures described above for Examples 1-5, the ligand Library 1 (containing unnatural amino acids) as described for Example 5, myocyte proteins prepared and labeled as described for Examples 9 and 11, screening as described for Example 15, sorting and identifying as described for Examples 18 to 21, digestion and protein identification as described for Examples 25-31, previously unknown, specific, differential ligand-protein binding pairs were identified for the normal (basal) myocyte protein mixtures and the phenylephrine (PE)-treated myocyte proteins screened against the ligands of Library 1. Phenylephrine was used to provide an in vitro model of hypertrophy, for example, cardiac hypertrophy (Arnott et al., 1998, Anal. Biochem., 1:1-18).
Take `CNC[C@H](O)c1cccc(O)c1` [PE, phenylephrine]: the “cell size at time of harvest” value is on record as “significantly enlarged”.
